Key:
[1] = type: physicochemical
From the text: The manufacture of an amorphous solid dispersion containing VX-950 presented several challenges. […] Therefore, an appropriate solvent or solvent mixture is crucial to optimizing the processing and production of a solid dispersion.

[2] = in vivo; conditions: rat, po
[3] = Effect of SLS concentration on apparent solubility (Example 10); type: physicochemical; conditions: VX-950 (95% L/5% D)
Method: The effect of SLS concentration on the apparent solubility of VX-950 solid dispersions were tested.

| SMILES | aqueous solubility [1] | pH dependence of aqueous solubility [1] | solubility in water [1] | bioavailability [2] [%] | % dissolved in water @ 5 min. [3] [%] |
| --- | --- | --- | --- | --- | --- |
| CCC[C@H](NC(=O)[C@@H]1[C@H]2CCC[C@H]2CN1C(=O)[C@@H](NC(=O)[C@@H](NC(=O)c1cnccn1)C1CCCCC1)C(C)(C)C)C(=O)C(=O)NC1CC1 [VX-950] | virtually undetectable | not pH-dependent | highly insoluble | < 0.5 |  |
| CCC[C@H](NC(=O)[C@@H]1[C@H]2CCC[C@H]2CN1C(=O)[C@@H](NC(=O)[C@@H](NC(=O)c1cnccn1)C1CCCCC1)C(C)(C)C)C(=O)C(=O)NC1CC1 [No Excipients] |  |  |  |  | 2.7 |
